Source: patent publication US11655244B2, “Carbazole compounds and methods of use thereof” (GSNO Therapeutics, Inc, priority 2017, dated 2023)
Like-named read-outs stand apart in the source and are kept apart here. Values belong to the compound of their own block, whether it stands above or below them.

Experiments:
GSNOR enzyme [1] = target: T1, GSNOR enzyme (Homo sapiens, UniProt P11766); assay: GSNOR inhibition assay (rate of NADH consumption, 340 nm absorbance); assay type: biochemical
Protocol: The following compounds were also prepared based on the methods described herein, using the appropriate starting materials. Table 2a and Table 2b also provides the % GSNOR inhibition at 20 μM of compounds described herein. […] The buffer was 100 mM phosphate buffer (pH 7.4.) The rate of NADH consumption for each well was determined by ultraviolet spectroscopy. Plates were read on a Molecular Devices Spectra Max UV/Visible Spectrophotometer/plate reader and the change in 340 nm absorbance at 25° C. was recorded for each well at 10 sec intervals over the duration of the recording period (2˜5 minutes). The rate was measured from the linear portion of the curve. Final test compound concentration was 20 μM. The mean % inhibition from 3 test compound wells and 5 control wells was measured as the percentage of the mean no compound+enzyme−the mean no enzyme, no compound control.

IL-6 = assay: LPS/cytokine assay (mouse inflammation assay), IL-6; assay type: in vivo, CD-1 male mice; settings: CD-1 male mice; IP or IV; cytokine typically 6 hrs after LPS
Protocol: Table 2b also includes additional biological data of compounds described herein. The LPS/cytokine Assay was carried out in CD-1 male mice. The assay measured the level of various cytokines, including IL-6, IL-17, and IL-23, after induction by bacterial liposaccharide (LPS). Compounds were dosed by IP or IV routes of administration at varying times before and after LPS and the cytokine concentrations were measured at varying times, typically 6 hrs, after LPS by standard methods using ELISA kits.
BIOLOGICAL TESTING: Compounds 10 and 17 from Table 1 were tested in a mouse inflammation assay. Briefly, CD-1 mice were dosed with compound, 12 hrs before injecting mice I.P. with the potent cytokine inducer, bacterial lipopolysaccharide (LPS). The mice were euthanized 6 hrs after the LPS was injected and their serum prepared by standard methods. The concentration of IL-6 in the serum of each experimental animal was measured using an IL-6 ELISA kit from Enzo. The compounds tested were active.
This LPS/cytokine assay was carried out in healthy mice and measured the level of cytokine IL-6, IL-17, and 23 induction by LPS. Compounds are dosed (either orally (“p.o.”) or intravenously (“i.v.”) at varying times before and after LPS, and the cytokines are measured at varying times after LPS. The effect of the tested compounds (Table 5) on IL-6 release is shown in FIG. 7. The effect of the tested compounds (Table 6) on IL-17 an IL-23 release is shown in FIG. 11 and FIG. 12, respectively.

GSNOR enzyme [2] = target: T1, GSNOR enzyme; assay: GSNOR inhibition assay (rate of NADH consumption, 340 nm absorbance); assay type: biochemical; settings: Table 2b; read-out: IC50 Micromolar
[3] = system: non-alcoholic steatohepatitis (NASH) in male C57BL/6 mice; assay: Non-alcoholic steatohepatitis (NASH) model, Streptozotocin plus 60% kcal fat diet; assay type: in vivo; settings: for liver to body weight ratio: disease control 0.066; for decrease of percentage collagen proportion area (CPA), Masson's trichrome staining, liver: vs disease control
Protocol: Timed pregnant mice (n=44) were selected for the study. The delivered pups were subcutaneously injected on post-natal day 2 with 200 μg of Streptozotocin and were allowed to remain with the mother until they reached the weanling age. After weanling, the male pups were selected and fed with 60% kcal fat diet (Research Diet-D12492) for next 6 weeks. All the animals were observed once daily for clinical signs and twice daily for morbidity and mortality.
Mice were dosed with vehicle, Compound 17 (at 3 mg/kg or 10 mg/kg) and 10 mg/kg of reference compound (either Obeticholic acid (OCA) or Elafibranor (ELA, GFT505)) once daily before the start of dark cycle (6:00 PM) from day 0 to 21. Animal body weight measurements were made daily for the complete duration of the experiment. Animals were dosed for 21 days (from week 9 to 12) with the test and reference compounds. Blood glucose was estimated before the treatment start, day 11 and on the termination day. Histopathology analysis including the H&E staining, Masson's trichrome staining and the Oil-red-O (ORO) staining was performed for the liver tissues.

[4] = Table 2b, test compound 20 uM, read-out: % GSNOR Inhibition at 20 uM
[5] = Table 2a, test compound 20 μM, pH 7.4, 25° C., read-out: % Inhibit. at 20 μM

T1 sequence (P11766 whole entry): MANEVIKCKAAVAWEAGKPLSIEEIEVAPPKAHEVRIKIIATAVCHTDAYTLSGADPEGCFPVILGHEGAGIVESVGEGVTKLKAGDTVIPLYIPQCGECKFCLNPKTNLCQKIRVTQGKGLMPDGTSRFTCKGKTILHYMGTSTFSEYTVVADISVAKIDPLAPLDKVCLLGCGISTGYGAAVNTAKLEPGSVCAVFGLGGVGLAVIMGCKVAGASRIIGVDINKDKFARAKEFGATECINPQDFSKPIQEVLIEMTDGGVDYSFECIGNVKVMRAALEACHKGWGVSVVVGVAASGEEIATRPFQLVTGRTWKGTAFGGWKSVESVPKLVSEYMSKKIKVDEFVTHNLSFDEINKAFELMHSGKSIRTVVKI

inhibition at 20 µM (GSNOR enzyme [1]; [4]): 90%
SMILES: COc1ccc(-n2c3ccc(-n4ccnc4)cc3c3ccc(CCC(=O)O)cc32)cc1 [Compound 24]

inhibition at 20 µM (GSNOR enzyme [1]; [4]): 92%
SMILES: COc1ccc(-n2c3ccc(-n4ccnc4)cc3c3ccc(CCC(=O)O)cc32)c(C)c1 [Compound 25]

inhibition at 20 µM (GSNOR enzyme [1]; [4]): 92.4%
IC50 (GSNOR enzyme [2]): < 1000 nM
SMILES: N#CCCn1c2ccc(-n3ccnc3)cc2c2ccc(CCC(=O)O)cc21 [Compound 26, 3-(imidazol-1(H)-yl)-7-(2-carboxylethyl)-9(H)-(2-cyanoethyl) carbazole]
LPS/IL6 Lowest tested active (IL-6): 0.3 mg/kg

inhibition at 20 µM (GSNOR enzyme [1]; [5]): 18%
SMILES: NC(=O)CCn1c2ccc(-n3ccnc3)cc2c2cc(F)c(C(=O)O)cc21 [Compound E1, 9-(3-amino-3-oxopropyl)-3-fluoro-6-(1H-imidazol-1-yl)-9H-carbazole-2-carboxylic acid]

More lines, now with the values behind:

SMILES: N#Cc1ccc(-n2c3cc(CNc4nccs4)ccc3c3ccc(C(=O)O)cc32)c([N+](=O)[O-])c1 [Compound G1, 9-(4-cyano-2-nitrophenyl)-7-((thiazol-2-ylamino)methyl)-9H-carbazole-2-carboxylic acid]
inhibition at 20 µM (GSNOR enzyme [1]; [5]): 15%

SMILES: N#Cc1ccc(-n2c3cc(CNc4ncco4)ccc3c3ccc(C(=O)O)cc32)c([N+](=O)[O-])c1 [Compound H1, 9-(4-cyano-2-nitrophenyl)-7-((oxazol-2-ylamino)methyl)-9H-carbazole-2-carboxylic acid]
inhibition at 20 µM (GSNOR enzyme [1]; [5]): 0%

SMILES: NC(=O)c1ccc(-n2c3cc(CNc4ncco4)ccc3c3ccc(C(=O)O)cc32)c([N+](=O)[O-])c1 [Compound I1, 9-(4-carbamoyl-2-nitrophenyl)-7-((oxazol-2-ylamino)methyl)-9H-carbazole-2-carboxylic acid]
inhibition at 20 µM (GSNOR enzyme [1]; [5]): 0%

SMILES: NC(=O)c1ccc(-n2c3cc(CNc4nccs4)ccc3c3ccc(C(=O)O)cc32)c([N+](=O)[O-])c1 [Compound J1, 9-(4-carbamoyl-2-nitrophenyl)-7-((thiazol-2-ylamino)methyl)-9H-carbazole-2-carboxylic acid]
inhibition at 20 µM (GSNOR enzyme [1]; [5]): 9%

SMILES: CSc1ccc(C(=O)/C=C/c2cc(C)c(OC(C)(C)C(=O)O)c(C)c2)cc1 [Elafibranor, reference compound]
NAS ([3]; 10 mg/kg): 2.67
ORO (Oil-Red-O) steatosis score relative to disease control ([3]; 10 mg/kg): −11%
change of liver to body weight ratio compared with disease control ([3]; 10 mg/kg): +40%
plasma glucose relative to disease control (in words) ([3]; 10 mg/kg once daily): neither OCA nor ELA reduced glucose
body weight, statistical significance ([3]; 10 mg/kg, day 7 and 12 post-treatment): statistically significant (*p<0.05) increase in body weight
weight put on relative to naïve controls at day 21 ([3]; 10 mg/kg): +43%
liver to body weight ratio ([3]; 10 mg/kg): 0.092
decrease of percentage collagen proportion area (CPA), Masson's trichrome staining, liver ([3]; 10 mg/kg): 54%
change in body weight (g), Mean ([3]; Day 1, 10 mg/kg once daily): 0.00 g
change in body weight (g), Mean ([3]; Day 2, 10 mg/kg once daily): 0.70 g
change in body weight (g), Mean ([3]; Day 3, 10 mg/kg once daily): 1.18 g
change in body weight (g), Mean ([3]; Day 4, 10 mg/kg once daily): 0.93 g
change in body weight (g), Mean ([3]; Day 5, 10 mg/kg once daily): 1.42 g
change in body weight (g), Mean ([3]; Day 6, 10 mg/kg once daily): 1.31 g
change in body weight (g), Mean ([3]; Day 7, 10 mg/kg once daily): 1.43 g
change in body weight (g), Mean ([3]; Day 8, 10 mg/kg once daily): 1.49 g
change in body weight (g), Mean ([3]; Day 9, 10 mg/kg once daily): 1.71 g
change in body weight (g), Mean ([3]; Day 10, 10 mg/kg once daily): 1.69 g
change in body weight (g), Mean ([3]; Day 11, 10 mg/kg once daily): 1.47 g
change in body weight (g), Mean ([3]; Day 12, 10 mg/kg once daily): -0.17 g
change in body weight (g), Mean ([3]; Day 13, 10 mg/kg once daily): 1.73 g
change in body weight (g), Mean ([3]; Day 14, 10 mg/kg once daily): 1.96 g
change in body weight (g), Mean ([3]; Day 15, 10 mg/kg once daily): 2.00 g
change in body weight (g), Mean ([3]; Day 16, 10 mg/kg once daily): 1.64 g
change in body weight (g), Mean ([3]; Day 17, 10 mg/kg once daily): 1.82 g
change in body weight (g), Mean ([3]; Day 18, 10 mg/kg once daily): 2.16 g
change in body weight (g), Mean ([3]; Day 19, 10 mg/kg once daily): 2.26 g
change in body weight (g), Mean ([3]; Day 20, 10 mg/kg once daily): 1.88 g
change in body weight (g), Mean ([3]; Day 21, 10 mg/kg once daily): 2.22 g

SMILES: CC[C@H]1[C@@H](O)[C@@H]2[C@H](CC[C@]3(C)[C@@H]([C@H](C)CCC(=O)O)CC[C@@H]23)[C@@]2(C)CC[C@@H](O)C[C@@H]12 [Obeticholic acid, reference compound]
NAS ([3]; 10 mg/kg): 3.20
ORO (Oil-Red-O) steatosis score relative to disease control ([3]; 10 mg/kg): −1%
change of liver to body weight ratio compared with disease control ([3]; 10 mg/kg): −11%
weight put on relative to naïve controls at day 21 ([3]; 10 mg/kg): +28%
liver to body weight ratio ([3]; 10 mg/kg): 0.058
decrease of percentage collagen proportion area (CPA), Masson's trichrome staining, liver ([3]; 10 mg/kg): 50%
change in body weight (g), Mean ([3]; Day 1, 10 mg/kg once daily): 0.00 g
change in body weight (g), Mean ([3]; Day 2, 10 mg/kg once daily): 0.43 g
change in body weight (g), Mean ([3]; Day 3, 10 mg/kg once daily): 0.57 g
change in body weight (g), Mean ([3]; Day 4, 10 mg/kg once daily): 0.43 g
change in body weight (g), Mean ([3]; Day 5, 10 mg/kg once daily): 0.45 g
change in body weight (g), Mean ([3]; Day 6, 10 mg/kg once daily): 0.78 g
change in body weight (g), Mean ([3]; Day 7, 10 mg/kg once daily): 0.58 g
change in body weight (g), Mean ([3]; Day 8, 10 mg/kg once daily): 0.89 g
change in body weight (g), Mean ([3]; Day 9, 10 mg/kg once daily): 0.85 g
change in body weight (g), Mean ([3]; Day 10, 10 mg/kg once daily): 1.06 g
change in body weight (g), Mean ([3]; Day 11, 10 mg/kg once daily): 0.78 g
change in body weight (g), Mean ([3]; Day 12, 10 mg/kg once daily): 0.06 g
change in body weight (g), Mean ([3]; Day 13, 10 mg/kg once daily): 0.82 g
change in body weight (g), Mean ([3]; Day 14, 10 mg/kg once daily): 1.05 g
change in body weight (g), Mean ([3]; Day 15, 10 mg/kg once daily): 0.54 g
change in body weight (g), Mean ([3]; Day 16, 10 mg/kg once daily): 0.82 g
change in body weight (g), Mean ([3]; Day 17, 10 mg/kg once daily): 1.43 g
change in body weight (g), Mean ([3]; Day 18, 10 mg/kg once daily): 1.52 g
change in body weight (g), Mean ([3]; Day 19, 10 mg/kg once daily): 1.81 g
change in body weight (g), Mean ([3]; Day 20, 10 mg/kg once daily): 1.62 g
change in body weight (g), Mean ([3]; Day 21, 10 mg/kg once daily): 1.98 g
